# pIC50: −log10 of the molar value.
# What was measured:
# [1] = system: MV4-11; assay: Antiproliferative activity against human MV4-11 cells assessed as reduction in cell viability; type: functional
# [2] = system: U-937; assay: Antiproliferative activity against human U-937 cells assessed as reduction in cell viability; type: functional
# [3] = system: 4T1; assay: Cytotoxicity against mouse 4T1 cells assessed as reduction in cell viability; type: functional, cell-based
# [4] = system: 4T1; assay: Antitumor activity against mouse 4T1 cells implanted in mouse assessed as reduction in tumor volume at 37 mg/kg, iv; type: functional; design: scale not given: the % may be the effect or the level left
# [5] = system: NIH3T3; assay: Cytotoxicity against mouse NIH3T3 cells assessed as reduction in cell viability; type: functional, cell-based
# [6] = system: MCF7; assay: Antitumor activity against human MCF7 cells xenografted in mouse assessed as tumor regression at 5 mg/kg, po; type: functional
# [7] = system: SR; assay: Antiproliferative activity against human SR cells assessed as growth inhibition at 10 uM relative to control; type: functional; design: scale not given: the % may be the effect or the level left
# [8] = system: NCI-H460; assay: Antiproliferative activity against human NCI-H460 cells assessed as growth inhibition at 10 uM relative to control; type: functional; design: scale not given: the % may be the effect or the level left
# [9] = system: DU-145; assay: Antiproliferative activity against human DU-145 cells assessed as reduction in cell viability; type: functional, cell-based
# [10] = system: NIH3T3; assay: Antiproliferative activity against mouse NIH3T3 cells assessed as reduction in cell viability; type: functional, cell-based
# [11] = system: DU-145; assay: Antitumor activity against human DU-145 cells implanted in mouse assessed as reduction in tumor volume at 2 mg/kg, po; type: functional; design: scale not given: the % may be the effect or the level left
# [12] = system: Panel NCI-60 (60 carcinoma cell lines); assay: Cytotoxicity against human Panel NCI-60 (60 carcinoma cell lines); type: functional, cell-based
# [13] = system: HL-60; assay: Cytotoxicity against human HL-60 cells assessed as inhibition of cell growth; type: functional, cell-based
# [14] = system: MDA-MB-231; assay: Cytotoxicity against human MDA-MB-231 cells assessed as reduction in cell viability by Almar Blue stained fluorescence-based assay; type: functional
# [15] = system: A549; assay: Cytotoxicity against human A549 cells assessed as reduction in cell viability by Almar Blue stained fluorescence-based assay; type: functional
# [16] = system: HeLa; assay: Cytotoxicity against human HeLa cells assessed as reduction in cell viability by Almar Blue stained fluorescence-based assay; type: functional
# [17] = system: NCI-H1993; assay: Cytotoxicity against human NCI-H1993 cells assessed as inhibition of cell growth; type: functional, cell-based
# [18] = system: B16-F10; assay: Antitumor activity against mouse B16-F10 cells implanted in mouse assessed as increase in survival time at 0.25 mg/kg, po; type: functional
# [19] = system: HeLa; assay: Antiproliferative activity against human HeLa cells assessed as reduction in cell viability at 100 uM; type: functional
# [20] = system: B16-F10; assay: Antiproliferative activity against mouse B16-F10 cells assessed as reduction in cell viability at 100 uM; type: functional
# [21] = system: HeLa; assay: Cytotoxicity against human HeLa cells assessed as inhibition of cell growth; type: functional, cell-based
# [22] = Antiproliferative activity against human U-87 MG cells assessed as reduction in cell viability; type: functional, cell-based, U-87MG ATCC
# [23] = system: MIA PaCa-2; assay: Cytotoxicity against human MIA PaCa-2 cells assessed as inhibition of cell growth measured after 72 hrs by MTS assay; type: functional, cell-based; settings: MIA PaCa-2, 72 h
# [24] = system: PSN1; assay: Antiproliferative activity against human PSN1 cells assessed as reduction in cell viability measured for 72 hrs by CCK-8 assay; type: functional, cell-based; settings: PSN1, 72 h
# [25] = Antiproliferative activity against human Nasopharyngeal carcinoma cell line assessed as reduction in cell viability measured for 72 hrs by CCK-8 assay; type: functional, cell-based
# [26] = system: BXPC-3; assay: Antiproliferative activity against human BXPC-3 cells assessed as reduction in cell viability measured for 72 hrs by CCK-8 assay; type: functional, cell-based; settings: BXPC-3, 72 h
# [27] = system: MCF7; assay: Antitumor activity against human MCF7 cells xenografted in BALB/c nude mouse assessed as tumor growth inhibition at 10 mg/kg, iv; type: functional; settings: read-out: TGI
# [28] = Cytotoxicity against human MRC5 cells assessed as reduction in cell viability by Almar Blue stained fluorescence-based assay; type: toxicity
compound,measurement,setting,value
O=C(CCCCCCC(=O)Nc1ccccc1)NOCc1ccc(B(O)O)cc1,Activity,[1],20%
same,Activity,[2],20%
CCN(CC)C(=S)SCc1ccc(B2OC(C)(C)C(C)(C)O2)cc1,pIC50,[3],6.00
same,Activity,[4],80%
same,pIC50,[5],5.22
COc1cccc2c1C(=O)c1c(O)c3c(c(O)c1C2=O)C[C@@](O)(C(=O)CO)C[C@@H]3O[C@H]1C[C@H](NC(=O)OCc2ccc(B3OC(C)(C)C(C)(C)O3)cc2)[C@H](O)[C@H](C)O1,Activity,[6],30%
CC1(C)OB(c2ccc(C[N+](C)(CCCl)CCCl)cc2)OC1(C)C.[Br-],Activity,[7],85%
same,Activity,[8],85%
CC1(COC(=O)OCc2ccc(B3OCCCO3)cc2)COC(/C=C/c2ccccc2)OC1 (centres undefined),pIC50,[9],4.32
same,pIC50,[10],3.74
same,Activity,[11],75%
COc1cc(CBr)c(B2OC(C)(C)C(C)(C)O2)c(CBr)c1,pIC50,[12],5.00
CN(Cc1cnc2nc(N)nc(NC(=O)OCc3ccc(B(O)O)cc3)c2n1)c1ccc(C(=O)N[C@H](CCC(=O)O)C(=O)O)cc1,pIC50,[13],7.30
CCN(CC)/[N+]([O-])=N/OCc1cc2ccc(B3OC(C)(C)C(C)(C)O3)cc2oc1=O,pIC50,[14],5.00
same,pIC50,[15],5.00
same,pIC50,[16],5.00
C[C@@H](Oc1cc(-c2cnn(C3CCNCC3)c2)cnc1NC(=O)OCc1ccc(B(O)O)cc1)c1c(Cl)ccc(F)c1Cl,IC50,[17],3 µM
CC[C@@]1(O)C(=O)OCc2c1cc1n(c2=O)Cc2cc3cc(OC(=O)OCc4cc5ccc(B(O)O)cc5oc4=O)ccc3nc2-1,Time,[18],1 days
same,Activity,[19],60%
same,Activity,[20],60%
COc1cccc2c1C(=O)c1c(O)c3c(c(O)c1C2=O)C[C@@](O)(C(=O)CO)C[C@@H]3O[C@H]1C[C@H](NCC(=O)OCc2cc(C)cc(COC(=O)c3ccc(C(=C(c4ccccc4)c4ccccc4)c4ccccc4)cc3)c2OCc2ccc(B3OC(C)(C)C(C)(C)O3)cc2)[C@H](O)[C@H](C)O1,pIC50,[21],5.70
CC[C@@]1(O)C(=O)OCc2c1cc1n(c2=O)Cc2cc3ccccc3nc2-1 [CAMPTOTHECIN],pIC50,[22],6.60
C[C@@H](Oc1cc(-c2cnn(C3CCNCC3)c2)cnc1N)c1c(Cl)ccc(F)c1Cl [CRIZOTINIB],pIC50,"[17]; Homo sapiens, NCI-H1993, read-out: IC50",5.52
COc1cccc2c1C(=O)c1c(O)c3c(c(O)c1C2=O)C[C@@](O)(C(=O)CO)C[C@@H]3O[C@H]1C[C@H](N)[C@H](O)[C@H](C)O1 [DOXORUBICIN],pIC50,[23],6.70
same,Activity,[6],50%
Nc1ccn([C@@H]2O[C@H](CO)[C@@H](O)C2(F)F)c(=O)n1 [GEMCITABINE],pIC50,[24],8.30
same,pIC50,[25],8.30
same,pIC50,[26],8.30
CC[C@@]1(O)C(=O)OCc2c1cc1n(c2=O)Cc2cc3cc(O)ccc3nc2-1 [HYDROXYCAMPTOTHECIN],Activity,[19],60%
same,Activity,[20],60%
CC(=O)O[C@H]1C(=O)[C@@]2(C)[C@H]([C@H](OC(=O)c3ccccc3)[C@]3(O)C[C@H](OC(=O)[C@H](O)[C@@H](NC(=O)c4ccccc4)c4ccccc4)C(C)=C1C3(C)C)[C@]1(OC(C)=O)CO[C@@H]1C[C@@H]2O [PACLITAXEL],inhibition in vivo at 10 mg/kg,[27],60%
same,pIC50,[28],4.60
O=C(CCCCCCC(=O)Nc1ccccc1)NO [VORINOSTAT],Activity,[1],20%
same,Activity,[2],20%

# Source: ChEMBL document CHEMBL5230107, “Anticancer boron-containing prodrugs responsive to oxidative stress from the tumor microenvironment” (Eur J Med Chem, 2020)
